The source of these data is patent US8993574B2, “Pyrrole antifungal agents” (F2G Ltd, priority 2008, dated 2015).

Structures are written as SMILES. Values after ≈ are worked out from the molar mass of the structure shown. A value given as a limit tells only on which side of the number the result lay.

Holding throughout (type): cell-based
Assay [1] concerns Aspergillus niger. The assay can be described thus: MIC, YAG medium. The conditions noted are these: 24 h at 35° C, MIC banded into grades; for MIC: Aspergillus niger, read-out: MIC grade, A. niger. The procedure, abridged:
(§1)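 OD 485 nm read-out after 24 h at 35° C; MIC = lowest concentration inhibiting growth >70% vs drug-free control, in mg/L. Inoculum 1−2×10^4 cfu/mL in YAG medium; drug range 50-0.05 mg/L, retested at 0.5-0.0005 mg/L when needed.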

In assay [2] the test system is Aspergillus fumigatus AF293. The assay can be described thus: MIC, YAG medium. As to conditions: 24 h at 35° C, MIC banded into grades; for MIC: Aspergillus fumigatus, read-out: MIC grade, A. fumigatus. The method, boiled down: as §1
Assay [3] relates to Aspergillus fumigatus AF210. The assay can be described thus: MIC, YAG medium. As to conditions: 24 h at 35° C, MIC banded into grades; for MIC: Aspergillus fumigatus, read-out: MIC grade, A. fumigatus 210. The procedure, abridged: as §1
The test system of assay [4] is Aspergillus terreus AT49. The assay can be described thus: MIC, YAG medium. The conditions noted are these: 24 h at 35° C, MIC banded into grades; for MIC: Aspergillus terreus, read-out: MIC grade, A. terreus 49. The procedure, abridged: as §1
The subject of assay [5] is Aspergillus terreus AT4. The assay can be described thus: MIC, YAG medium. As to conditions: 24 h at 35° C, MIC banded into grades; for MIC: Aspergillus terreus, read-out: MIC grade, A. terreus. The method, boiled down: as §1
For assay [6], the system named is Aspergillus flavus. Put plainly: MIC, YAG medium. The conditions noted are these: 24 h at 35° C, MIC banded into grades; for MIC: Aspergillus flavus, 24 h, read-out: MIC grade, A. flavus. The procedure, abridged:
as §1

Assay [7] concerns Aspergillus niger. Put plainly: MIC, RPMI medium. The conditions noted are these: MIC banded into grades; for MIC: Aspergillus niger, read-out: MIC grade, A. niger. The procedure, abridged:
(§2)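 Minimum inhibitory concentrations were determined in glucose-supplemented (2%) RPMI buffered to pH 7.0 with 0.135 M MOPS. Wells held 1−2×10^4 cfu/mL and compound from 50 to 0.05 mg/L, incubated 24-48 h at 35° C, with >80% growth reduction by OD 485 nm as endpoint.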

The test system of assay [8] is Aspergillus fumigatus AF293. Put plainly: MIC, RPMI medium. The conditions noted are these: for MIC: Aspergillus fumigatus, AF293, MIC banded into grades, read-out: MIC grade, A. fumigatus; for MIC grade, A. fumigatus: MIC banded into grades. The method, boiled down:
as §2

Assay [9] concerns Aspergillus fumigatus AF210. Put plainly: MIC, RPMI medium. The conditions noted are these: for MIC: Aspergillus fumigatus, AF210, MIC banded into grades, read-out: MIC grade, A. fumigatus 210; for MIC grade, A. fumigatus 210: MIC banded into grades. The method, boiled down:
as §2

The subject of assay [10] is Aspergillus terreus AT49. The assay can be described thus: MIC, RPMI medium. The conditions noted are these: for MIC: Aspergillus terreus, AT49, MIC banded into grades, read-out: MIC grade, A. terreus 49; for MIC grade, A. terreus 49: MIC banded into grades. The procedure, abridged: as §2
The test system of assay [11] is Aspergillus terreus AT4. Put plainly: MIC, RPMI medium. As to conditions: for MIC: Aspergillus terreus, AT4, MIC banded into grades, read-out: MIC grade, A. terreus; for MIC grade, A. terreus: MIC banded into grades. The procedure, abridged: as §2
Assay [12] relates to Aspergillus flavus. Put plainly: MIC, RPMI medium. The conditions noted are these: MIC banded into grades; for MIC: Aspergillus flavus, read-out: MIC grade, A. flavus. The procedure, abridged:
as §2

Consider `Cc1cc(C)nc(N2CCN(c3ccc(NC(=O)C(=O)c4c(-c5ccccc5)cc(C)n4C)cc3Cl)CC2)c1` [Example 11, N-{3-Chloro-4-[4-(4,6-dimethyl-pyridin-2-yl)-piperazin-1-yl]-phenyl}-2-(1,5-dimethyl-3-phenyl-1H-pyrrol-2-yl)-2-oxo-acetamide], for which the MIC in [1], in assay [2], in assay [3], in assay [4], in assay [5] and in assay [6] was under 1 µg/mL in each case. For the same molecule, the MIC in [7], in assay [8], in assay [9], in [10], in assay [11] and in [12] was under 1 µg/mL throughout.
With `Cc1cc(C)nc(N2CCN(c3ccc(NC(=O)C(=O)c4c(-c5ccccc5)ccn4CC(N)=O)cc3)CC2)c1` [Example 75, 2-(1-Carbamoylmethyl-3-phenyl-1H-pyrrol-2-yl)-N-{4-[4-(4,6-dimethyl-pyridin-2-yl)-piperazin-1-yl]-phenyl}-2-oxo-acetamide], the MIC in assay [1], in [2], in assay [3], in assay [4], in assay [5] and in assay [6] was over 10 µg/mL throughout. The MIC in [7], in assay [8], in [9], in assay [10], in [11] and in assay [12] was over 10 µg/mL each time.
With `COCCn1c(C)cc(-c2ccccc2)c1C(=O)C(=O)Nc1ccc(N2CCN(c3cc(C)cc(C)n3)CC2)cc1F` [Example 123, N-{4-[4-(4,6-Dimethyl-pyridin-2-yl)-piperazin-1-yl]-2-fluoro-phenyl}-2-[1-(2-methoxy-ethyl)-5-methyl-3-phenyl-1H-pyrrol-2-yl)-2-oxo-acetamide], the MIC in assay [1], in assay [2], in assay [3], in assay [4], in assay [5] and in [6] was under 1 µg/mL throughout. Further, the minimal inhibitory concentration (MIC) in assay [7] is under 1 µg/mL; in assay [8] it was under 1 µg/mL; in assay [9] it was under 1 µg/mL; in assay [10], 1 to 10 µg/mL (≈ 1.76 to 17.6 µM); in assay [11], under 1 µg/mL; in [12] it was under 1 µg/mL.
With `COCCCCn1c(C)cc(-c2ccccc2)c1C(=O)C(=O)Nc1ccc(N2CCN(c3cc(C)cc(C)n3)CC2)cc1` [Example 142, N-{4-[4-(4,6-Dimethyl-pyridin-2-yl)-piperazin-1-yl]-phenyl}-2-[1-(4-methoxy-butyl)-5-methy-3-phenyl-1H-pyrrol-2-yl]-2-oxo-acetamide], the “MIC grade, A. niger” value in assay [1] and in assay [7] was 3 (A grade of 3 represents an MIC of less than 1 mg/L) in each case. Moreover, the “MIC grade, A. fumigatus” value in assay [2] and in assay [8] was 3 (A grade of 3 represents an MIC of less than 1 mg/L) in each case. In addition, the “MIC grade, A. fumigatus 210” value in assay [3] and in assay [9] was 3 (A grade of 3 represents an MIC of less than 1 mg/L) in each case. Also, the “MIC grade, A. terreus 49” value in assay [4] and in assay [10] was 3 (A grade of 3 represents an MIC of less than 1 mg/L) each time. Besides, the “MIC grade, A. terreus” value in assay [5] and in [11] was 3 (A grade of 3 represents an MIC of less than 1 mg/L) throughout. Besides, the “MIC grade, A. flavus” value in assay [6] and in [12] was 3 (A grade of 3 represents an MIC of less than 1 mg/L) in each case.
For `COCC=CCn1c(C)cc(-c2ccccc2)c1C(=O)C(=O)Nc1ccc(N2CCN(c3cc(C)cc(C)n3)CC2)cc1` [Example 141, N-{4-[4-(4,6-Dimethyl-pyridin-2-yl)-piperazin-1-yl]-phenyl}-2-[1-(4-methoxy-but-2-enyl)-5-methyl-3-phenyl-1H-pyrrol-2-yl]-2-oxo-acetamide], the MIC in assay [1] is 1 to 10 µg/mL (≈ 1.73 to 17.3 µM); in assay [2] it was under 1 µg/mL; in assay [3], under 1 µg/mL; in [4], 1 to 10 µg/mL (≈ 1.73 to 17.3 µM); in assay [5], 1 to 10 µg/mL (≈ 1.73 to 17.3 µM); in assay [6], 1 to 10 µg/mL (≈ 1.73 to 17.3 µM). Further, the MIC in assay [7], in assay [8], in assay [9], in assay [10], in assay [11] and in [12] was over 10 µg/mL in each case.
Consider `Cc1cc(C)nc(N2CCN(c3ccc(NC(=O)C(=O)c4c(-c5ccccc5)cc(C)n4CCO)cc3)CC2)c1` [Example 64, N-{4-[4-(4,6-Dimethyl-pyridin-2-yl)-piperazin-1-yl]-phenyl}-2-[1-(2-hydroxy-ethyl)-5-methyl-3-phenyl-1H-pyrrol-2-yl]-2-oxo-acetamide], for which the MIC in assay [1], in assay [2], in [3], in assay [4], in assay [5] and in assay [6] was under 1 µg/mL throughout. Further, the MIC was under 1 µg/mL in assay [7]; under 1 µg/mL in assay [8]; under 1 µg/mL in [9]; under 1 µg/mL in [10]; 1 to 10 µg/mL (≈ 1.86 to 18.6 µM) in assay [11]; 1 to 10 µg/mL (≈ 1.86 to 18.6 µM) in assay [12].
On to `Cc1cc(C)nc(N2CCN(c3ccc(NC(=O)C(=O)c4c(-c5ccccc5)cc(C)n4CC(=O)OC(C)C)cc3)CC2)c1` [Example 77, (2-{4-[4-(4,6-Dimethyl-pyridin-2-yl)-piperazin-1-yl]-phenylaminooxalyl}-5-methyl-3-phenyl-pyrrol-1-yl)-acetic acid isopropyl ester], for which the entries for the “MIC grade, A. niger” value in assay [1] and in [7] were 2 (A grade of 2 represents an MIC of from 1 to 10 mg/L) and 1 (a grade of 1 represents an MIC of greater than 10 mg/L), respectively. In addition, the “MIC grade, A. fumigatus” value in assay [2] is 3 (A grade of 3 represents an MIC of less than 1 mg/L); in assay [8], 2 (A grade of 2 represents an MIC of from 1 to 10 mg/L). In addition, the entries for the “MIC grade, A. fumigatus 210” value in assay [3] and in assay [9] were 3 (A grade of 3 represents an MIC of less than 1 mg/L) and 2 (A grade of 2 represents an MIC of from 1 to 10 mg/L), respectively. For the same molecule, the “MIC grade, A. terreus 49” value in assay [4] is 2 (A grade of 2 represents an MIC of from 1 to 10 mg/L); in assay [10], 1 (a grade of 1 represents an MIC of greater than 10 mg/L). Also, the “MIC grade, A. terreus” value in [5] is reported as 2 (A grade of 2 represents an MIC of from 1 to 10 mg/L); in assay [11], 1 (a grade of 1 represents an MIC of greater than 10 mg/L). In addition, the “MIC grade, A. flavus” value in assay [6] and in assay [12] was 1 (a grade of 1 represents an MIC of greater than 10 mg/L) each time.
Take `Cc1cc(C)nc(N2CCN(c3ccc(NC(=O)C(=O)c4c(-c5ccccc5)ccn4C)cc3)CC2)c1` [Example 45, N-{4-[4-(4,6-Dimethyl-pyridin-2-yl)-piperazin-1-yl]-phenyl}-2-(1-methyl-3-phenyl-1H-pyrrol-2-yl)-2-oxo-acetamide]: the MIC in assay [1], in assay [2], in assay [3], in [4], in assay [5] and in assay [6] was under 1 µg/mL in each case. Moreover, the MIC in [7], in assay [8], in assay [9], in [10], in assay [11] and in assay [12] was under 1 µg/mL throughout.
For the molecule `Cc1cc(C)nc(N2CCN(c3ccc(NC(=O)C(=O)c4ccc(C)[nH]4)cc3)CC2)c1` [Example 4, N-{4-[4-(4,6-Dimethyl-pyridin-2-yl)-piperazin-1-yl]-phenyl}-2-(5-methyl-1H-pyrrol-2-yl)-2-oxo-acetamide], the MIC in assay [1] was 1 to 10 µg/mL (≈ 2.4 to 24 µM); in assay [2], 1 to 10 µg/mL (≈ 2.4 to 24 µM); in assay [3] it was 1 to 10 µg/mL (≈ 2.4 to 24 µM); in assay [4], 1 to 10 µg/mL (≈ 2.4 to 24 µM); in assay [5] it was over 10 µg/mL; in [6], 1 to 10 µg/mL (≈ 2.4 to 24 µM). The MIC in assay [7], in assay [8], in [9], in assay [10], in [11] and in assay [12] was over 10 µg/mL each time.
